Values quoted from earlier work as cited in patent publication US20210386743A1, “USE OF PDE9 INHIBITORS FOR TREATMENT” (The Johns Hopkins University, priority 2018, published 2021).
Where two headings read alike, the source gives them in different places.

Test system: female mice, models of heart disease
Conditions: cited from earlier work

## CCCc1nn(C)c2c(=O)[nH]c(-c3cc(S(=O)(=O)N4CCN(C)CC4)ccc3OCC)nc12 [sildenafil]
Female mice with ovaries, several models of heart disease
  treatment of heart disease: successfully treated
Female mice, ovaries first removed
  treatment of heart disease: totally ineffective
Female mice, ovaries removed, exogenous estrogen replacement
  treatment of heart disease: rescued
